Source: publication PMC6151740, “Pharmacokinetics, Tissue Distribution, and Elimination of Three Active Alkaloids in Rats after Oral Administration of the Effective Fraction of Alkaloids from Ramulus Mori, an Innovative Hypoglycemic Agent” (Molecules : A Journal of Synthetic Chemistry and Natural …, 2017)
Like-named read-outs stand apart in the source and are kept apart here. Each block holds one compound with its values, some of them ahead of it.

Legend:
[1] = Plasma pharmacokinetic study in rats after oral and intravenous administration of SZ–A or purified DNJ; format: in vivo, rat; conditions: for AUC(0-inf) / AUC(0-t) / Tmax / half-life / clearance / MRT last / MRT inf / Vd / Cmax / CLz: rat plasma, n = 5; for clearance: read-out: CLz (converted); for MRT last: read-out: MRT0–t; for MRT inf: read-out: MRT0–∞; for bioavailability: plasma, read-out: F (oral absolute bioavailability); for bioavailability / time to reach maximum plasma concentration (Cmax) / average AUC of DNJ in the SZ–A group relative to the DNJ group: rat; for time to reach maximum plasma concentration (Cmax): after oral administration of SZ–A (40, 200, 1000 mg/kg), upper bound over doses
Procedure: The oral dosing solutions used for all animal studies were prepared by dissolving in water. Thirty rats weighed 250–270 g after acclimation were randomly divided into six groups of five animals each. For oral administration, rats were treated with SZ–A (40, 200, 1000 mg/kg) or purified DNJ (15 mg/kg) dissolve in water. Blood samples (about 0.25 mL) were collected via the postorbital venous plexus veins under ether anesthesia into heparinized polythene tubes before dosing and at 0.08, 0.17, 0.33, 0.50, 1, 2, 3, 4, 6, 8, 12, 24 and 36 h after drug administration. For intravenous dosing, rats were given SZ–A (4 mg/kg) or DNJ (1.5 mg/kg) dissolved in normal saline solution through the tail vein. Then blood samples were collected at 0.03, 0.08, 0.17, 0.33, 0.67, 1, 2, 4, 6, 8, 12, 24, and 36 h under similar conditions. Considering the physical limit of blood in rats, during the process of the pharmacokinetic experiment, each rat was received 0.25 mL of sterile isotonic saline at each time point after blood sampling for compensation of body fluid loss, and the blood loss was also corrected at a definite degree. Plasma was separated by centrifuging the blood samples at 1660× g for 5 min and stored at −20 °C until LC-MS/MS analysis. Data fitting and pharmacokinetic parameter estimates were carried out using non–compartmental analysis via WinNonlin Software (version 6.1, Pharsight Corporation, Mountain View, CA, USA). F was calculated according to the formula: F (%) = (AUC oral/AUC i.v.) × (dose i.v./dose oral) × 100.
The plasma, feces, urine, and bile samples (100 μL) were added to 1 μL of Tris aqueous solution (2 M), 10 μL of IS working solution (2 μg/mL), and 190 μL methanol–acetonitrile (25:75, v/v). The incubation supernatant samples (300 μL) were mixed with 1 μL Tris aqueous solution (2 M) and 10 μL of IS working solution (2 μg/mL). All mixtures were vortexed for 30 s followed by centrifugation at 18,880× g for 5 min, twice.
Briefly, the LC-MS/MS instrument consisted of a 1260 HPLC system (Agilent, Santa Clara, CA, USA) and API4000 triple quadrupole mass spectrometer (Applied Biosystems Sciex, Toronto, ON, Canada) with an electrospray ionization (ESI) source and Analyst software (version 1.5.2, Applied Biosystems Sciex, Toronto, ON, Canada) for data acquisition and processing. DNJ, FGM, DAB, and IS were separated in a Xbridge amide™ column (3.5 μm, 4.6 mm × 150 mm; Waters, Milford, MA, USA) with a gradient mobile phase of acetonitrile-water (0.1% ammonium hydroxide) at a flow rate of 0.7 mL/min. An ESI source was used in the positive ion mode. The optimized mass spectrometric condition was as follows: ion spray voltage, 5500 V; collision gas, 6 psi; curtain gas, 20 psi; ion source gas 1 (GS1), 45 psi; ion source gas 2 (GS2), 45 psi; temperature, 450 °C. The multiple reaction monitoring (MRM) transitions of DNJ, FGM, DAB, and IS were m/z 164.0→110.1 (declustering potential (DP) 50 V, collision energy (CE) 22 V, collision cell exit potential (CXP) 10 V), 148.0→112.1 (DP 66 V, CE 21 V, CXP 10 V), 134.0→98.0 (DP 60 V, CE 20 V, CXP 10 V) and 208.0→146.1 (DP 50 V, CE 27 V, CXP 10 V), respectively.

[2] = DNJ 110 mg/kg ingested; cited from earlier work
[3] = In situ single-pass intestinal perfusion (rat jejunum, mesenteric vein blood); format: in vivo; conditions: by 60 min, n = 5
Procedure: The surgical procedures were similar to those described elsewhere. The Hank’s balanced salt solution (HBSS, pH = 7.4) with SZ–A (21.73 μg/mL) or DNJ (50 μM) at 37 °C was infused into the jejunum at 0.3 mL/min individually. Phenol Red (50 μM) was added to serve as a nonabsorbable marker for measuring water flux. The blood from mesenteric vein and perfusate were collected at five-minute intervals. The plasma was separated by centrifugation and perfusate were immediately frozen at −20 °C for LC-MS/MS analysis. Atenolol and propranolol, the low- and high-permeability markers, were used to check the integrity of the intestinal membrane.

[4] = Sprague-Dawley, iv, SZ–A 4 mg/kg i.v.
[5] = Sprague-Dawley, iv, SZ–A 4 mg/kg i.v., read-out: Vd
[6] = Sprague-Dawley, iv, purified DNJ 1.5 mg/kg i.v.
[7] = Sprague-Dawley, po, SZ–A 40 mg/kg p.o. vs SZ–A 4 mg/kg i.v.
[8] = Sprague-Dawley, po, SZ–A 200 mg/kg p.o. vs SZ–A 4 mg/kg i.v.
[9] = Sprague-Dawley, po, SZ–A 1000 mg/kg p.o. vs SZ–A 4 mg/kg i.v.
[10] = Sprague-Dawley, po, SZ–A 40 mg/kg p.o.
[11] = Sprague-Dawley, po, SZ–A 200 mg/kg p.o.
[12] = Sprague-Dawley, po, SZ–A 1000 mg/kg p.o.
[13] = Sprague-Dawley, po, purified DNJ 15 mg/kg p.o.

AUC(0-inf) [1, 4]: 1400 ± 175 ng·h/mL | AUC(0-t) [1, 4]: 1400 ± 174 ng·h/mL | Tmax [1, 4]: 0.033 h | half-life [1, 4]: 0.29 ± 0.08 h | clearance [1, 4]: 18.1 mL/min/kg | MRT last [1, 4]: 0.8 ± 0.5 h | MRT inf [1, 4]: 0.82 ± 0.51 h | Vd [1, 5]: 0.453 ± 0.13 L/kg | AUC(0-inf) [1, 6]: 1140 ± 108 ng·h/mL | AUC(0-t) [1, 6]: 1130 ± 108 ng·h/mL | Cmax [1, 6]: 4520 ± 576 ng/mL | Tmax [1, 6]: 0.03 h | half-life [1, 6]: 0.25 ± 0.05 h | clearance [1, 6]: 22.2 mL/min/kg | MRT last [1, 6]: 0.48 ± 0.08 h | MRT inf [1, 6]: 0.5 ± 0.08 h | Vd ([1]; Sprague-Dawley, iv, purified DNJ 1.5 mg/kg i.v., read-out: Vd): 0.486 ± 0.0854 L/kg | bioavailability [1, 7]: 72.4% | bioavailability [1, 8]: 38.6% | bioavailability [1, 9]: 33.3% | bioavailability ([1]; Sprague-Dawley, po, purified DNJ 15 mg/kg p.o. vs DNJ 1.5 mg/kg i.v.): 59.4% | AUC(0-inf) [1, 10]: 10200 ng·h/mL | AUC(0-t) [1, 10]: 10100 ng·h/mL | Cmax [1, 10]: 6370 ± 1120 ng/mL | Tmax [1, 10]: 0.67 ± 0.29 h | half-life [1, 10]: 1.3 ± 0.25 h | MRT last [1, 10]: 1.71 ± 0.67 h | MRT inf [1, 10]: 1.78 ± 0.69 h | AUC(0-inf) [1, 11]: 27000 ng·h/mL | AUC(0-t) [1, 11]: 27000 ng·h/mL | Cmax [1, 11]: 10500 ng/mL | Tmax [1, 11]: 0.67 ± 0.2 h | half-life [1, 11]: 2.11 ± 0.47 h | MRT last [1, 11]: 2.63 ± 0.48 h | MRT inf [1, 11]: 2.71 ± 0.49 h | AUC(0-inf) [1, 12]: 117000 ng·h/mL | AUC(0-t) [1, 12]: 116000 ng·h/mL | Cmax [1, 12]: 25100 ng/mL | Tmax [1, 12]: 0.43 ± 0.09 h | half-life [1, 12]: 3.52 ± 0.85 h | MRT last [1, 12]: 5.12 ± 1.48 h | MRT inf [1, 12]: 5.25 ± 1.53 h | AUC(0-t) [1, 13]: 6730 ± 1150 ng·h/mL | Cmax [1, 13]: 4860 ± 1120 ng/mL | Tmax [1, 13]: 0.67 ± 0.29 h | half-life [1, 13]: 0.88 ± 0.14 h | MRT last [1, 13]: 1.77 ± 0.25 h | MRT inf [1, 13]: 1.85 ± 0.21 h | CLz ([1]; SZ–A 40 mg/kg p.o.): 25.013 ± 3.258 mL/min/kg | Vd ([1]; SZ–A 40 mg/kg p.o.): 2.8301 ± 0.7411 L/kg | CLz ([1]; SZ–A 200 mg/kg p.o.): 47.062 ± 6.693 mL/min/kg | Vd ([1]; SZ–A 200 mg/kg p.o.): 8.6178 ± 2.3175 L/kg | CLz ([1]; SZ–A 1000 mg/kg p.o.): 54.045 ± 4.968 mL/min/kg | Vd ([1]; SZ–A 1000 mg/kg p.o.): 16,468.3 ± 4217.0 mL/kg | CLz ([1]; purified DNJ 15 mg/kg p.o.): 37.693 ± 6.373 mL/min/kg | time to reach maximum plasma concentration (Cmax) [1]: ≤ 0.67 h | average AUC of DNJ in the SZ–A group relative to the DNJ group ([1]; intravenous injection, SZ–A 4 mg/kg vs purified DNJ 1.5 mg/kg): 1.2 fold | average AUC of DNJ in the SZ–A group relative to the DNJ group ([1]; oral administration, SZ–A 40 mg/kg vs purified DNJ 15 mg/kg): 1.5 fold | cumulative amount per unit of area absorbed into the mesenteric venous blood ([3]; perfusion of SZ–A 21.73 μg/mL (containing 50 μM DNJ)): 2136.1 pmol/cm^2 | cumulative amount per unit of area absorbed into the mesenteric venous blood ([3]; perfusion of purified DNJ 50 μM): 1787.1 pmol/cm^2
SMILES: OC[C@H]1NC[C@H](O)[C@@H](O)[C@@H]1O [DNJ, 1-deoxynojirimycin]
fraction of ingested DNJ incorporated into the rat plasma [2]: 1%

SMILES: OC[C@H]1NCC[C@@H](O)[C@@H]1O [FGM, fagomine]
AUC(0-inf) [1, 4]: 284 ± 36.7 ng·h/mL | AUC(0-t) [1, 4]: 278 ± 36.8 ng·h/mL | Cmax [1, 4]: 1240 ± 304 ng/mL | Tmax [1, 4]: 0.033 h | half-life [1, 4]: 0.23 ± 0.03 h | clearance [1, 4]: 15.4 mL/min/kg | MRT last [1, 4]: 0.26 ± 0.06 h | MRT inf [1, 4]: 0.3 ± 0.06 h | Vd [1, 5]: 0.308 ± 0.061 L/kg | bioavailability [1, 7]: 77.5% | bioavailability [1, 8]: 38.5% | bioavailability [1, 9]: 29.9% | AUC(0-inf) [1, 10]: 2170 ± 770 ng·h/mL | AUC(0-t) [1, 10]: 2160 ± 778 ng·h/mL | Cmax [1, 10]: 1490 ± 756 ng/mL | Tmax [1, 10]: 0.67 ± 0.29 h | half-life [1, 10]: 0.93 ± 0.29 h | MRT last [1, 10]: 1.41 ± 0.27 h | MRT inf [1, 10]: 1.48 ± 0.34 h | AUC(0-inf) [1, 11]: 5400 ± 1470 ng·h/mL | AUC(0-t) [1, 11]: 5360 ± 1490 ng·h/mL | Cmax [1, 11]: 2250 ± 1060 ng/mL | Tmax [1, 11]: 0.57 ± 0.09 h | half-life [1, 11]: 1.44 ± 0.16 h | MRT last [1, 11]: 2.66 ± 0.52 h | MRT inf [1, 11]: 2.78 ± 0.54 h | AUC(0-inf) [1, 12]: 21800 ng·h/mL | AUC(0-t) [1, 12]: 20800 ng·h/mL | Cmax [1, 12]: 4390 ± 2360 ng/mL | Tmax [1, 12]: 1.3 ± 0.67 h | half-life [1, 12]: 2.73 ± 1.16 h | MRT last [1, 12]: 5.44 ± 1.77 h | MRT inf [1, 12]: 6.15 ± 2.11 h | CLz ([1]; SZ–A 40 mg/kg p.o.): 21.965 ± 9.748 mL/min/kg | Vd ([1]; SZ–A 40 mg/kg p.o.): 1.894 ± 1.3578 L/kg | CLz ([1]; SZ–A 200 mg/kg p.o.): 42.625 ± 13.11 mL/min/kg | Vd ([1]; SZ–A 200 mg/kg p.o.): 5.332 ± 1.8559 L/kg | CLz ([1]; SZ–A 1000 mg/kg p.o.): 56.43 ± 21.033 mL/min/kg | Vd ([1]; SZ–A 1000 mg/kg p.o.): 14,243.4 ± 9987.6 mL/kg | time to reach maximum plasma concentration (Cmax) [1]: ≤ 1.30 h
